Results on four molecules are retold here after the NIST ThermoML archive (doi:10.1016/j.jct.2014.05.005).

± gives the expanded uncertainty stated by the source.

For data set [1] the following is noted: for mass density: 298.15 K, 101.33 kPa, Liquid, Vibrating tube method; for Normal melting temperature: Crystal, DTA.
Data set [2] can be described thus: Molar enthalpy of transition or fusion. The note with it: Crystal; DSC.

One may read the mass density as the mass of a sample divided by its volume. In the case of `CCCCCCCCO` [octan-1-ol], the mass density in data set [1] is recorded as 822.99 ± 1 kg/m3. For `Cn1c(=O)c2c(ncn2CCO)n(C)c1=O` [7-(2-hydroxyethyl)-1,3-dimethylxanthine], in data set [2], the “Molar enthalpy of transition or fusion” value was 32.6 ± 0.71 kJ/mol. The Normal melting temperature in data set [1] is 162.7 ± 0.4 °C. As for `Cn1c(=O)c2[nH]cnc2n(C)c1=O` [3,7-dihydro-1,3-dimethyl-1H-purine-2,6-dione], the “Molar enthalpy of transition or fusion” value in data set [2] turned out to be 30.2 ± 0.66 kJ/mol. Besides, the Normal melting temperature in data set [1] came out at 271.4 ± 0.4 °C. With `CCO` [ethanol], the mass density in data set [1] is on record as 785.12 ± 1 kg/m3.
